Here are results for 1 compound from ChEMBL document CHEMBL6092191, “Advancing Cancer Immunotherapy through Engineering New PD-L1 Degraders: A Comprehensive Study from Small Molecules to PD-L1-Specific Peptide-Drug Conjugates” (J Med Chem, 2024).

Calls of active or inactive are those of the source. The calls are words filed in the database; no cut-off is given here.

Data set [1] concerns the target COP9 signalosome complex subunit 5 (Homo sapiens) (UniProt Q92905). Nature of the data set: Induction of PD-L1 degradation in human NCI-H460 cells at 10 to 20 uM incubated for 2 days by Western blot analysis. Format: cell-based. To be noted: dose 10-20 µM, time 2.0 day.
In the next data set the test system is HEK-293T. Nature of the data set: Antiproliferative activity against HEK293T cells at 10 uM incubated for 4 days. Format: toxicity, cell-based. To be noted: human, 96 h, time 4 day.
The next data set concerns 3T3-L1. The experiment in a line: Antiproliferative activity against mouse 3T3-L1 cells at 10 uM incubated for 4 days. Format: toxicity, cell-based. To be noted: 3t3-l1, 96 h, time 4 day.
The nature of data set [2]: Antiproliferative activity against human HTori-3 cells at 10 uM incubated for 4 days. The format is toxicity, cell-based. To be noted: htori-3, 96 h, time 4 day.
The test system of data set [3] is Lewis lung carcinoma cell line. Nature of the data set: Antitumor activity against Lewis lung carcinoma cells xenografted in C57BL/6 mouse model at 29.5 mg/kg, ip administered daily for 8 days relative to control. To be noted: 192 h, time 8 day, read-out: TGI. The format is functional.
The test system of data set [4] is Lewis lung carcinoma cell line. The experiment in a line: Antitumor activity against Lewis lung carcinoma cells xenografted in C57BL/6 mouse model assessed as decrease in Ki-67 level at 29.5 mg/kg, ip administered daily for 8 days by IHC analysis. The format is functional, organism-based. The conditions noted are these: time 8.0 day.
In a further data set the test system is Mus musculus. The experiment in a line: In vivo induction of PD-L1 degradation in […] lung carcinoma cells xenografted in C57BL/6 mouse model at 29.5 mg/kg, ip administered daily for 8 days by IHC analysis. Format: functional, organism-based. The conditions noted are these: time 8.0 day.
Data set [5] relates to Lewis lung carcinoma cell line. The experiment in a line: Antitumor T-cell immune response in Lewis lung carcinoma cells xenografted in C57BL/6 mouse model assessed as decrease in CD3+ CD4+ population in CD45+ T cells in tumor at 29.5 mg/kg, ip administered daily for 8 days by flow cytometry. The format is functional, organism-based. To be noted: time 8.0 day. A general note: Flow cytometry measures light scatter and fluorescence of single cells or particles in a stream.

Data set [6] has as its system Lewis lung carcinoma cell line. Nature of the data set: Antitumor T-cell immune response in Lewis lung carcinoma cells xenografted in C57BL/6 mouse model assessed as increase in CD3+ CD8+ infiltration in CD45+ T cells in tumor at 29.5 mg/kg, ip administered daily for 8 days by flow cytometry. Format: functional, organism-based. The conditions noted are these: time 8.0 day.

Data set [7] is described as follows: Toxicity in C57BL/6 mouse model xenografted with […] cells assessed as obvious body weight change at 29.5 mg/kg, ip administered daily for 8 days. The format is organism-based. To be noted: in vivo, 192 h, time 8 day. Background: Xenograft models place foreign cells or tissue in a host animal.
Data set [8] relates to Lewis lung carcinoma cell line. Nature of the data set: Antitumor T-cell immune response in Lewis lung carcinoma cells xenografted in C57BL/6 mouse model assessed as increase in ratio of CD8+ to CD4+ T cells in tumor at 29.5 mg/kg, ip administered daily for 8 days by flow cytometry. Format: functional, organism-based. To be noted: time 8.0 day.
Data set [9] in a line: Toxicity in C57BL/6 mouse model xenografted with […] cells assessed as damage in heart at 29.5 mg/kg, ip administered daily for 8 days by H and E staining based analysis. Format: organism-based. To be noted: in vivo, 192 h, time 8 day.
A short description of data set [10]: Toxicity in C57BL/6 mouse model xenografted with […] cells assessed as damage in liver at 29.5 mg/kg, ip administered daily for 8 days by H and E staining based analysis. To be noted: in vivo, 192 h, time 8 day. Format: organism-based.
Data set [11] in a line: Toxicity in C57BL/6 mouse model xenografted with […] cells assessed as damage in lung at 29.5 mg/kg, ip administered daily for 8 days by H and E staining based analysis. The format is organism-based. To be noted: in vivo, 192 h, time 8 day.
A short description of data set [12]: Toxicity in C57BL/6 mouse model xenografted with […] cells assessed as damage in kidney at 29.5 mg/kg, ip administered daily for 8 days by H and E staining based analysis. Format: organism-based. The conditions noted are these: in vivo, 192 h, time 8 day.
The nature of data set [13]: Toxicity in C57BL/6 mouse model xenografted with […] cells assessed as damage in spleen at 29.5 mg/kg, ip administered daily for 8 days by H and E staining based analysis. To be noted: in vivo, 192 h, time 8 day. Format: organism-based.
Data set [14] in a line: Toxicity in C57BL/6 mouse model xenografted with […] cells assessed as change in ALT level at 29.5 mg/kg, ip administered daily for 8 days. The format is organism-based, Blood. The conditions noted are these: in vivo, 192 h, time 8 day.
A short description of data set [15]: Toxicity in C57BL/6 mouse model xenografted with […] cells assessed as change in AST level at 29.5 mg/kg, ip administered daily for 8 days. To be noted: in vivo, 192 h, time 8 day. Format: organism-based, Blood.
The nature of data set [16]: Toxicity in C57BL/6 mouse model xenografted with […] cells assessed as change in BUN level at 29.5 mg/kg, ip administered daily for 8 days. The conditions noted are these: in vivo, 192 h, time 8 day. The format is organism-based, Blood.
Data set [17] in a line: Toxicity in C57BL/6 mouse model xenografted with […] cells assessed as change in creatinine level at 29.5 mg/kg, ip administered daily for 8 days. Format: organism-based. To be noted: in vivo, 192 h, time 8 day.

Chain of COP9 signalosome complex subunit 5 (Homo sapiens) (Q92905 2-334 limits assumed, one chain of several): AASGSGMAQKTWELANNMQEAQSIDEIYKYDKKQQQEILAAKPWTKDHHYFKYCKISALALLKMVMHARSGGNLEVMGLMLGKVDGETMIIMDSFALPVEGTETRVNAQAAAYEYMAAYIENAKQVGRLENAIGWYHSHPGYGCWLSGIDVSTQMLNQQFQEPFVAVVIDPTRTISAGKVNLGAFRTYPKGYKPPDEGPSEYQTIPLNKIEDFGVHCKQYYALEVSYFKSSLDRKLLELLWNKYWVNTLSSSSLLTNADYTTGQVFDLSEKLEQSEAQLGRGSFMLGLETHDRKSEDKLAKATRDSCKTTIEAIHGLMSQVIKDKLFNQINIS

For `COc1cc2c(cc1OC)-c1cc3ccc(OC)c(OCCNC(=O)OCCSSC[C@H](N)C(=O)NCCCCCC(=O)N[C@@H](CC(N)=O)C(=O)N[C@@H](Cc4ccc(O)cc4)C(=O)N[C@@H](CO)C(=O)N[C@@H](CCCCN)C(=O)N4CCC[C@H]4C(=O)N[C@H](C(=O)N[C@@H](CC(=O)O)C(=O)N[C@@H](CCCNC(=N)N)C(=O)N[C@@H](CCC(N)=O)C(=O)N[C@@H](Cc4ccc(O)cc4)C(=O)N[C@@H](Cc4cnc[nH]4)C(=O)N[C@@H](Cc4ccccc4)C(=O)O)[C@@H](C)O)c3c[n+]1CC2.[Cl-]`, the Activity entry in data set [1] is listed as “Active; Comparable To Pmt-O9-1A”; with HEK-293T, “Non-toxic”; in the data set with 3T3-L1, “Non-toxic”; in data set [2] it was “Non-toxic”; in data set [7] it was “Non-toxic”; in data set [9] it was “Non-toxic”. Moreover, the Activity entry in data set [10], in data set [11], in data set [12], in data set [13], in [14] and in data set [15] was “Non-toxic” each time. In addition, the Activity entry in data set [16] and in data set [17] was “Non-toxic” in each case. The inhibition in vivo at 29.5 mg/kg in data set [3] was determined as 89%. The result (in data set [4]; in the data set on Mus musculus; in data set [5]; in [6]; in data set [8]) was Active.
